Assay results taken from patent publication US20240409585A1, “MACROCYCLIC IMMUNOMODULATORS” (priority 2021, published 2024).
Bridge positions count the residues as written; N and C are the ends. Square brackets hold non-standard residues; d marks the D form. Peptide text beside a SMILES is read from it. * marks the point of attachment. ξ: configuration not given here. Phe(4-COOH) = N[C@@H](Cc1ccc(C(=O)O)cc1)C(=O)O; Bip = N[C@@H](Cc1ccc(-c2ccccc2)cc1)C(=O)O; Phe(3-Br) = N[C@@H](Cc1cccc(Br)c1)C(=O)O; Phe(3-Me) = Cc1cccc(C[C@H](N)C(=O)O)c1; Val(3-OH) = CC(C)(O)[C@H](N)C(=O)O; 3Pal = N[C@@H](Cc1cccnc1)C(=O)O; 4Pal = N[C@@H](Cc1ccncc1)C(=O)O; Cha = N[C@@H](CC1CCCCC1)C(=O)O; Cit = NC(=O)NCCC[C@H](N)C(=O)O; Ile(3ξ) = CCC(C)[C@H](N)C(=O)O; Thr(3ξ) = CC(O)[C@H](N)C(=O)O; Carboxymethyl = O=C(O)C*; NMeA = CN[C@@H](C)C(=O)O; Orn = NCCC[C@H](N)C(=O)O; Dab = NCC[C@H](N)C(=O)O; Dap = NC[C@H](N)C(=O)O; NH(CH2)5NH2 = NCCCCCN*; ξV = CC(C)C(N)C(=O)O

target: T1, PE-labeled human PD-L1-Ig binding to Jurkat cell line over-expressing human PD-1 (Jurkat-PD-1) (Homo sapiens, UniProt Q15116); assay: Jurkat-PD-1 Cell Binding High-Content Screening Assay (CBA): Method 1; settings: Jurkat HPDL1 PD1 IC50 (uM) (Method 1), Jurkat-hPD-1 cells, PE-labeled PD-L1-Ig 20 nM final
T1 construct: expressed in transfected cells; host or cells: Jurkat
T1 sequence (Q15116 25-288): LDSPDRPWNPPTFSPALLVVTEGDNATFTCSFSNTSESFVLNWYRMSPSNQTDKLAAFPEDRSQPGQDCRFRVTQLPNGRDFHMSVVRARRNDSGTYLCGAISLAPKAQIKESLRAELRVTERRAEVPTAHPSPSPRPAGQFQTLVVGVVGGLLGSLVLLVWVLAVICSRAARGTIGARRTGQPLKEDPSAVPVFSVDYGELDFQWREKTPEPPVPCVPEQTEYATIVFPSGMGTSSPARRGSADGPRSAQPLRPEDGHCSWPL

For `CC(C)C[C@@H]1NC(=O)[C@H](CCN)NC(=O)[C@@H](CC(C)C)NC(=O)[C@H](C)N(C)C(=O)[C@H](CCCNC(=N)N)NC(=O)[C@H](Cc2ccc(-c3ccccc3)cc2)NC(=O)[C@H](C(C)C)NC(=O)[C@H](Cc2c[nH]c3ccccc23)NC(=O)[C@H](CC(=O)O)NC(=O)[C@H](Cc2ccc(O)cc2)NC(=O)[C@H](Cc2ccccc2)NC(=O)CSC[C@@H](C(=O)N[C@@H](C)C(N)=O)NC(=O)[C@H](CO)NC(=O)[C@H](C(C)C)NC1=O` [Compound 1030] ({CH2CO}-FYDWV[Bip]R[NMeA][dL][Dab]LVSCA-NH2; thioether N-14), which IC50 is on record?
The IC50 was 0.03 µM.

same assay, conditions: Jurkat-hPD-1 cells, PE-labeled PD-L1-Ig 20 nM final; read-out: Jurkat HPDL1 PD1 IC50 (uM) (Method 1)

With `CC(C)C[C@@H]1NC(=O)[C@H](CCN)NC(=O)[C@@H](CC(C)C)NC(=O)[C@H](C)N(C)C(=O)[C@H](CCCNC(=N)N)NC(=O)[C@H](Cc2ccc(-c3ccccc3)cc2)NC(=O)[C@H](C(C)C)NC(=O)[C@H](Cc2c[nH]c3ccccc23)NC(=O)[C@H](CC(=O)O)NC(=O)[C@H](Cc2cnc[nH]2)NC(=O)[C@H](Cc2cccnc2)NC(=O)CSC[C@@H](C(=O)N[C@@H](C)C(N)=O)NC(=O)[C@H]([C@@H](C)O)NC(=O)[C@H](C(C)C)NC1=O` [Compound 1157] ({CH2CO}-[3Pal]HDWV[Bip]R[NMeA][dL][Dab]LVTCA-NH2; thioether N-14) as the compound, how does the IC50 read?
The IC50 was 0.11 µM.

For `CC(C)C[C@@H]1NC(=O)[C@H](CCN)NC(=O)[C@@H](CC(C)C)NC(=O)[C@H](C)N(C)C(=O)[C@H](CCCNC(N)=O)NC(=O)[C@H](Cc2ccc(-c3ccccc3)cc2)NC(=O)[C@H](C(C)C)NC(=O)[C@H](Cc2c[nH]c3ccccc23)NC(=O)[C@H](CC(=O)O)NC(=O)[C@H](Cc2ccc(O)cc2)NC(=O)[C@H](CC(N)=O)NC(=O)CSC[C@@H](C(=O)N[C@@H](C)C(N)=O)NC(=O)[C@H](CCCN)NC(=O)[C@H](C(C)C)NC1=O` [Compound 1232] ({CH2CO}-NYDWV[Bip][Cit][NMeA][dL][Dab]LV[Orn]CA-NH2; thioether N-14), which IC50 is on record?
The IC50 was 0.12 µM.

For `CC(C)C[C@H]1NC(=O)[C@H](C)N(C)C(=O)[C@H](CCCNC(N)=O)NC(=O)[C@H](Cc2ccc(-c3ccccc3)cc2)NC(=O)[C@H](C(C)C)NC(=O)[C@H](Cc2c[nH]c3ccccc23)NC(=O)[C@H](CC(=O)O)NC(=O)[C@H](Cc2ccc(O)cc2)NC(=O)[C@H](Cc2ccccc2)NC(=O)CSC[C@@H](C(=O)N[C@@H](C)C(N)=O)NC(=O)[C@H]([C@@H](C)O)NC(=O)[C@H](C(C)C)NC(=O)[C@H](CC2CCCCC2)NC(=O)[C@H](CCCNC(=N)N)NC1=O` [Compound 1505] ({CH2CO}-FYDWV[Bip][Cit][NMeA][dL]R[Cha]VTCA-NH2; thioether N-14), which IC50 is on record?
Its IC50 is 0.02 µM.

For `Cc1cccc(C[C@@H]2NC(=O)[C@H](CC(=O)O)NC(=O)[C@H](Cc3ccncc3)NC(=O)[C@H](Cc3ccc(OCC(=O)O)cc3)NC(=O)CSC[C@@H](C(=O)N[C@@H](C)C(N)=O)NC(=O)[C@H](CO)NC(=O)[C@H](C(C)C)NC(=O)[C@H](CC(C)C)NC(=O)[C@H](CC(N)=O)NC(=O)[C@@H](CC(C)C)NC(=O)[C@H](C)N(C)C(=O)[C@H](C(C)C)NC(=O)[C@H](Cc3ccc(-c4ccccc4)cc3)NC(=O)[C@H](CC(C)C)NC2=O)c1` [Compound 1589] ({CH2CO}-Y(Carboxymethyl)[4Pal]D[Phe(3-Me)]L[Bip]V[NMeA][dL]NLVSCA-NH2; thioether N-14), which IC50 is on record?
Its IC50 is 0.03 µM.

Which IC50 does the source give for `CCC(C)[C@@H]1NC(=O)[C@H](Cc2ccc(-c3ccccc3)cc2)NC(=O)[C@H](C(C)C)NC(=O)[C@H](Cc2c[nH]c3ccccc23)NC(=O)[C@H](CC(=O)O)NC(=O)[C@H](Cc2ccc(C(=O)O)cc2)NC(=O)[C@H](Cc2ccc(OCC(=O)O)cc2)NC(=O)CSC[C@@H](C(=O)NCC(=O)N[C@@H](CN)C(=O)O)NC(=O)[C@H](C(C)O)NC(=O)[C@H](C(C)C)NC(=O)[C@H](CC2CCCCC2)NC(=O)[C@H](CC(N)=O)NC(=O)[C@@H](CC(C)C)NC(=O)[C@H](C)N(C)C1=O` (stereo partly drawn) [Compound 2005] ({CH2CO}-Y(Carboxymethyl)[Phe(4-COOH)]DWV[Bip][Ile(3ξ)][NMeA][dL]N[Cha]V[Thr(3ξ)]CG[Dap]-OH; thioether N-14) here?
Its IC50 is 0.02 µM.

How did the IC50 turn out when `CC(C)C[C@@H]1NC(=O)[C@H](CCCCN)NC(=O)[C@@H](CC(C)C)NC(=O)[C@H](C)N(C)C(=O)[C@H](CCCNC(N)=O)NC(=O)[C@H](Cc2ccc(-c3ccccc3)cc2)NC(=O)[C@H](C(C)C)NC(=O)[C@H](Cc2c[nH]c3ccccc23)NC(=O)[C@H](CC(=O)O)NC(=O)[C@H](Cc2ccc(O)cc2)NC(=O)[C@H](CC(N)=O)NC(=O)CSC[C@@H](C(=O)N[C@@H](C)C(N)=O)NC(=O)[C@H](CO)NC(=O)[C@H](C(C)C)NC1=O` [Compound 1473] ({CH2CO}-NYDWV[Bip][Cit][NMeA][dL]KLVSCA-NH2; thioether N-14) was run?
Its IC50 is 0.04 µM.

For `CC(C)C[C@@H]1NC(=O)[C@H](CCN)NC(=O)[C@@H](CC(C)C)NC(=O)[C@H](C)N(C)C(=O)[C@H](CCCNC(=N)N)NC(=O)[C@H](Cc2ccc(-c3ccccc3)cc2)NC(=O)[C@H](C(C)C)NC(=O)[C@H](Cc2cccc(Br)c2)NC(=O)[C@H](CC(=O)O)NC(=O)[C@H](Cc2ccc(O)cc2)NC(=O)[C@H](CC(N)=O)NC(=O)CSC[C@@H](C(=O)N[C@@H](C)C(N)=O)NC(=O)[C@H]([C@@H](C)O)NC(=O)[C@H](C(C)C)NC1=O` [Compound 1217] ({CH2CO}-NYD[Phe(3-Br)]V[Bip]R[NMeA][dL][Dab]LVTCA-NH2; thioether N-14), which IC50 is on record?
The IC50 was 0.06 µM.

Which IC50 does the source give for `CC(C)C[C@@H]1NC(=O)[C@H](CCCNC(=N)N)NC(=O)[C@@H](CC(C)C)NC(=O)[C@H](C)N(C)C(=O)[C@H](CCCNC(=N)N)NC(=O)[C@H](Cc2ccc(-c3ccccc3)cc2)NC(=O)[C@H](C(C)C)NC(=O)[C@H](Cc2c[nH]c3ccccc23)NC(=O)[C@H](CC(=O)O)NC(=O)[C@H](Cc2ccc(C(=O)O)cc2)NC(=O)[C@H](Cc2ccncc2)NC(=O)CSC[C@@H](C(=O)N[C@@H](C)C(N)=O)NC(=O)[C@H]([C@@H](C)O)NC(=O)[C@H](C(C)C)NC1=O` [Compound 1077] ({CH2CO}-[4Pal][Phe(4-COOH)]DWV[Bip]R[NMeA][dL]RLVTCA-NH2; thioether N-14) here?
Its IC50 is 0.05 µM.

Which IC50 does the source give for `Cc1cccc(C[C@@H]2NC(=O)[C@H](CC(=O)O)NC(=O)[C@H](Cc3ccc(C(=O)O)cc3)NC(=O)[C@H](Cc3ccncc3)NC(=O)CSC[C@@H](C(=O)N[C@@H](CCN)C(N)=O)NC(=O)[C@H](CO)NC(=O)[C@H](C(C)(C)O)NC(=O)[C@H](CC3CCCCC3)NC(=O)[C@H](CCN)NC(=O)[C@@H](CC(C)C)NC(=O)[C@H](C)N(C)C(=O)[C@H](Cc3ccc(C(=O)O)cc3)NC(=O)[C@H](Cc3ccc(-c4ccccc4)cc3)NC(=O)[C@H](Cc3ccc(OCC(=O)O)cc3)NC2=O)c1` [Compound 2184] ({CH2CO}-[4Pal][Phe(4-COOH)]D[Phe(3-Me)]Y(Carboxymethyl)[Bip][Phe(4-COOH)][NMeA][dL][Dab][Cha][Val(3-OH)]SC[Dab]-NH2; thioether N-14) here?
The IC50 was 0.04 µM.

For `CC(C)C[C@H]1NC(=O)[C@H](C)N(C)C(=O)[C@H](C(C)C)NC(=O)[C@H](Cc2ccc(-c3ccccc3)cc2)NC(=O)[C@H](C(C)C)NC(=O)[C@H](Cc2c[nH]c3ccccc23)NC(=O)[C@H](CC(N)=O)NC(=O)[C@H](Cc2ccc(OCC(=O)O)cc2)NC(=O)[C@H](Cc2ccccc2)NC(=O)CSC[C@@H](C(=O)N[C@@H](C)C(=O)NCCCCCN)NC(=O)[C@H](CO)NC(=O)C(C(C)C)NC(=O)[C@H](CC2CCCCC2)NC(=O)[C@H](CC(N)=O)NC1=O` (stereo partly drawn) [Compound 2240] ({CH2CO}-FY(Carboxymethyl)NWV[Bip]V[NMeA][dL]N[Cha][ξV]SCA-{NH(CH2)5NH2}; thioether N-14), which IC50 is on record?
Its IC50 is 0.04 µM.

With `Cc1cccc(C[C@@H]2NC(=O)[C@H](CC(=O)O)NC(=O)[C@H](Cc3ccc(OCC(=O)O)cc3)NC(=O)[C@H](Cc3ccncc3)NC(=O)CSC[C@@H](C(=O)N[C@@H](CCN)C(N)=O)NC(=O)[C@H](CCC(N)=O)NC(=O)[C@H](C(C)(C)O)NC(=O)[C@H](CC3CCCCC3)NC(=O)[C@H](CCN)NC(=O)[C@@H](CC(C)C)NC(=O)[C@H](C)N(C)C(=O)[C@H](Cc3ccc(OCC(=O)O)cc3)NC(=O)[C@H](Cc3ccc(-c4ccccc4)cc3)NC(=O)[C@H](Cc3ccc(OCC(=O)O)cc3)NC2=O)c1` [Compound 2192] ({CH2CO}-[4Pal]Y(Carboxymethyl)D[Phe(3-Me)]Y(Carboxymethyl)[Bip]Y(Carboxymethyl)[NMeA][dL][Dab][Cha][Val(3-OH)]QC[Dab]-NH2; thioether N-14) as the compound, how does the IC50 read?
The IC50 was 0.02 µM.

Which IC50 does the source give for `CC(C)C[C@@H]1NC(=O)[C@H](Cc2c[nH]c3ccccc23)NC(=O)[C@H](CC(=O)O)NC(=O)[C@H](Cc2ccc(O)cc2)NC(=O)[C@H](Cc2ccccc2)NC(=O)CSC[C@@H](C(=O)N[C@@H](C)C(N)=O)NC(=O)[C@H]([C@@H](C)O)NC(=O)[C@H](CCCCN)NC(=O)[C@H](CC(C)C)NC(=O)[C@H](CC(N)=O)NC(=O)[C@@H](C)NC(=O)[C@H](C)N(C)C(=O)[C@H](C(C)C)NC(=O)[C@H](Cc2ccc(-c3ccccc3)cc2)NC1=O` [Compound 1766] ({CH2CO}-FYDWL[Bip]V[NMeA][dA]NLKTCA-NH2; thioether N-14) here?
The IC50 was 0.04 µM.

How did the IC50 turn out when `Cc1cccc(C[C@@H]2NC(=O)[C@H](CC(=O)O)NC(=O)[C@H](Cc3ccc(C(=O)O)cc3)NC(=O)[C@H](Cc3ccncc3)NC(=O)CSC[C@@H](C(=O)N[C@@H](C)C(N)=O)NC(=O)[C@H]([C@@H](C)O)NC(=O)[C@H](C(C)C)NC(=O)[C@H](CC(C)C)NC(=O)[C@H](CCN)NC(=O)[C@@H](CC(C)C)NC(=O)[C@H](C)N(C)C(=O)[C@H](CCCNC(N)=O)NC(=O)[C@H](Cc3ccc(-c4ccccc4)cc3)NC(=O)[C@H](C(C)C)NC2=O)c1` [Compound 1431] ({CH2CO}-[4Pal][Phe(4-COOH)]D[Phe(3-Me)]V[Bip][Cit][NMeA][dL][Dab]LVTCA-NH2; thioether N-14) was run?
The IC50 was 0.01 µM.

Which IC50 does the source give for `Cc1cccc(C[C@@H]2NC(=O)[C@H](CC(=O)O)NC(=O)[C@H](Cc3ccc(OCC(=O)O)cc3)NC(=O)[C@H](CN)NC(=O)CSC[C@@H](C(=O)N[C@@H](CCN)C(N)=O)NC(=O)[C@H](CCCN)NC(=O)[C@H](C(C)C)NC(=O)[C@H](CC(C)C)NC(=O)[C@H](CCN)NC(=O)[C@@H](C)NC(=O)[C@H](C)N(C)C(=O)[C@H](Cc3ccc(O)cc3)NC(=O)[C@H](Cc3ccc(-c4ccccc4)cc3)NC(=O)[C@H](Cc3ccc(O)cc3)NC2=O)c1` [Compound 1874] ({CH2CO}-[Dap]Y(Carboxymethyl)D[Phe(3-Me)]Y[Bip]Y[NMeA][dA][Dab]LV[Orn]C[Dab]-NH2; thioether N-14) here?
Its IC50 is 0.28 µM.
